Source: US20240246968A1, “SMALL MOLECULE INHIBITORS OF KRAS G12C MUTANT” (Merck Sharp & Dohme LLC, priority 2021, published 2024)

Key:
[1] = target: Gppcp-bound recombinant K-Ras4B G12C mutant protein (amino acids 1-169, C51S/C80L/C118S) (Homo sapiens, UniProt P01116, C118S/C51S/C80L/G12C); test: KRASG12C binding assay (LC-MS, compound binding rate); details: test compound final concentration 0.5 μM, 25° C., 1 hour
Method: As test compounds for the KRASG12C binding assay, the compounds obtained in the “Preparation of Compounds” section were used. Sample solutions each containing a test compound were prepared in the form of a 10 mM DMSO solution.
Gppcp-bound recombinant K-Ras4B G12C mutant protein (amino acids 1-169, C51S/C80L/C118S, SEQ ID NO:1) was diluted with a buffer (1×TBS, 0.1 mM TCEP, 0.25 mM MgCl2, 50 μM Gppcp) to prepare a 50 nM protein solution. K-Ras4B is the major splicing variant of K-Ras. Amino acid sequence of residues 1 to 150 including the compounds' binding region of K-Ras4B is exactly same as that of K-Ras4A, the other splicing variant (Oncotarget. 2016 Jul. 19; 7(29): 46717-46733). A sample solution containing 10 mM test compound was diluted ten-fold with DMSO to make a 1 mM sample solution, and then diluted twenty-fold with DMSO to make a 50 μM sample solution. 1 μL of a 50 μM sample solution was added to 100 μL of a 50 nM protein solution to adjust the final concentration of a test compound to be 0.5 μM in the mixture. The mixtures were stored in an incubator at 25° C. for 1 hour, and 10 μL of a 1×TBS solution containing 2% formic acid was added to stop the reaction, followed by LC-MS measurement. LC-MS measurement was performed using Xevo G2-S Q-Tof manufactured by Waters, and reverse-phase chromatography was performed with a desalting column. A mass spectrum of positive ions was obtained by electrospray. For a mass spectrum, a spectrum of polyvalent ions was collectively converted to a molecular weight by using OpenLynx software by the MaxEnt technique, and a compound binding rate was calculated from the ratio of the signal intensity of a peak that corresponds to the molecular weight of the protein to the signal intensity of a peak that corresponds to the molecular weight of the protein conjugated with the compound.
The binding assay of the test compounds was conducted at a final concentration of 0.5 μM. A binding rate of 80% or more is rated “A”, a binding rate of 60% or more and less than 80% is rated “B”, a binding rate of 40% or more and less than 60% is rated “C”, a binding rate of 20% or more and less than 40% is rated “D”, and a binding rate of less than 20% is rated “E”. N.D.=not determined. Binding rate % is the ratio of KRAS signal intensity at the molecular weight of one molecule adduct to the sum of all the KRAS signal intensity (unbound form and adducts) in mass spectrum. Thus, binding rate 100% means that only the one molecule adduct was observed without any unbound KRAS. The following tables show the results.

[2] = tested on: MIA PaCa-2 cells; test: Growth inhibition activity on KRAS-G12C mutant cell line (MIA PaCa-2), CellTiter-Glo 3D; assay type: cell-based, human; details: MIA PaCa-2, 3-day culture with compound
Method: MIA PaCa-2 cells (given by Sumitomo Dainippon Pharma Co., Ltd.), which are a KRAS-G12C mutant human pancreas cancer cell line, were suspended in a 10% fetal bovine serum-containing RPMI1640 medium (manufactured by Fujifilm Wako Pure Chemical Corporation.). The cell suspension was seeded into each well of a 384-well U bottom microplate and cultured in an incubator containing 5% CO2 gas at 37° C. for 1 day. The compounds obtained in the “Preparation of Compounds” section were used as test compounds and were dissolved in DMSO, respectively, and each test compound was diluted with DMSO to give a concentration 500 times the final concentration. The resultant solution of the test compound in DMSO was diluted with the medium used for suspending cells and added to each well of the cell-culture plate to give a DMSO final concentration of 0.2%, followed by culture in an incubator containing 5% CO2 gas at 37° C. for another 3 days. The cell count after 3-day culture in the presence of the test compound was measured using CellTiter-Glo 3D Reagent (manufactured by Promega Corporation). All wells were added with CellTiter-Glo 3D Reagent and mixed for 10 minutes. 30 minutes after mixing, luminescence was measured by a plate reader. The growth inhibition rate was calculated from the following equation, and the concentration of the test compound at which 50/o inhibition was achieved (IC50 (nM)) was determined. The following tables show the results.
[formula] • T: the emission intensity in a well into which a test compound was added. • C: the emission intensity in a well into which a test compound was not added.

[3] = target: T1, interaction between recombinant K-Ras4B G12C mutant protein and cRAF RAS-binding domain (cRAF-RBD) (Homo sapiens, UniProt P01116, G12C); test: Inhibitory activity on interaction between KRAS G12C and cRAF (Alpha technology); assay type: biochemical; details: GMPPNP-bound KRAS G12C incubated with compound at 25° C. for 1 hour, then cRAF-RBD; Alpha signal
T1 construct: made in house; host or cells: E. coli
Method: Interaction between recombinant K-Ras4B G12C mutant protein (amino acids 1-169, SEQ ID NO:2) and cRAF RAS-binding domain (cRAF-RBD, amino acids 50-132, Jena Biosciences GmbH) was measured using Alpha technology (PerkinElmer Inc.).
Recombinant KRAS G12C protein with an N-terminal His-tag was expressed in E. coli and purified by affinity chromatography. To prepare GTP-bound form and GDP-bound form of KRAS G12C protein. 50 μM KRAS G12C protein was incubated with 1 mM GMPPNP (Guanosine-5′-[(β,γ)-imido]triphosphate. Tetralithium salt)(Jena Bioscience GmbH) and 1 mM GDP, respectively, in a loading buffer (20 mM Tris-HCl (pH 7.5), 50 mM NaCl, 1 mM DTT and 2.5 mM EDTA) for 1 hour on ice. After the incubation, MgCl2 was added to a final concentration of 10 mM, followed by incubation at room temperature for 30 minutes. The mixture was allowed to pass through a NAP-5 column to remove free nucleotides and purified, and the resultant nucleotide-bound KRAS G12C protein was used for compound evaluation.
For the measurement of the inhibitory activity of compounds on interaction between KRAS G12C and cRAF-RBD, GMPPNP-bound KRAS G12C protein was incubated with various concentrations of compound in a reaction buffer (20 mM Tris-HCl (pH 7.5), 100 mM NaCl, 1 mM MgCl2, 1 mM TCEP. 0.1% Tween 20) at 25° C. for 1 hour. After the incubation, recombinant cRAF-RBD and Alpha detection reagents were added and incubated at room temperature for 1.5 hours for binding. Interaction of KRAS G12C and cRAF-RBD was monitored by measuring Alpha signal. Inhibition % was calculated using the signal from the reaction without test compound (DMSO control) as 0% inhibition and the signal from the reaction using GDP-bound KRAS G12C in place of GMPPNP-bound KRAS G12C as 100% inhibition. IC50 values were calculated from dose titration curve using curve fitting by XLfit software (IDBS). The following tables show the results.

Structure (SMILES): Cc1cc2c(ncn2C)c(Cl)c1-c1cccn2c(C(=O)c3cc(F)c(NC(=O)/C=C/CNC4CCOCC4)c(F)c3)ccc12 (single isomer, unassigned) [Example 27-1, (E)-N-(4-(8-(4-chloro-1,6-dimethyl-1H-benzo[d]imidazol-5-yl)indolizine-3-carbonyl)-2,6-difluorophenyl)-4-((tetrahydro-2H-pyran-4-yl)amino)but-2-enamide]
- binding rate [1]: A (A binding rate of 80% or more is rated “A”)
- IC50 [2]: 120 nM
- IC50 [3]: 25 nM

Structure (SMILES): Cc1cc2c(ncn2C)c(Cl)c1-c1cccn2c(C(=O)c3cc(F)c(NC(=O)/C=C/CNC4CCOCC4)c(F)c3)ccc12 (single isomer, unassigned) [Example 27-2, (E)-N-(4-(8-(4-chloro-1,6-dimethyl-1H-benzo[d]imidazol-5-yl)indolizine-3-carbonyl)-2,6-difluorophenyl)-4-((tetrahydro-2H-pyran-4-yl)amino)but-2-enamide]
- binding rate [1]: A (A binding rate of 80% or more is rated “A”)
- IC50 [2]: 530 nM
- IC50 [3]: 120 nM

Structure (SMILES): CO[C@H]1CC[C@H](NC/C=C/C(=O)Nc2c(F)cc(C(=O)c3ccc4c(-c5c(C(F)(F)F)cc6c(ncn6C)c5Cl)cccn34)cc2F)CC1 (single isomer, unassigned) [Example 28-1, (E)-N-(4-(8-(4-chloro-1-methyl-6-(trifluoromethyl)-1H-benzo[d]imidazol-5-yl)indolizine-3-carbonyl)-2,6-difluorophenyl)-4-(((1r,4r)-4-methoxycyclohexyl)amino)but-2-enamide]
- binding rate [1]: A (A binding rate of 80% or more is rated “A”)
- IC50 [2]: 51 nM
- IC50 [3]: 31 nM

Structure (SMILES): CO[C@H]1CC[C@H](NC/C=C/C(=O)Nc2c(F)cc(C(=O)c3ccc4c(-c5c(C(F)(F)F)cc6c(ncn6C)c5Cl)cccn34)cc2F)CC1 (single isomer, unassigned) [Example 28-2, (E)-N-(4-(8-(4-chloro-1-methyl-6-(trifluoromethyl)-1H-benzo[d]imidazol-5-yl)indolizine-3-carbonyl)-2,6-difluorophenyl)-4-(((1r,4r)-4-methoxycyclohexyl)amino)but-2-enamide]
- binding rate [1]: A (A binding rate of 80% or more is rated “A”)
- IC50 [2]: 940 nM
- IC50 [3]: 800 nM

Structure (SMILES): COc1cc(N2CCCC2=O)cc(Cl)c1-c1cccn2c(C(=O)c3cc(F)c(NC(=O)/C=C/CN[C@H]4CC[C@H](OC)CC4)c(F)c3)ccc12 (single isomer, unassigned) [Example 30-1, (E)-N-(4-(8-(2-chloro-6-methoxy-4-(2-oxopyrrolidin-1-yl)phenyl)indolizine-3-carbonyl)-2,6-difluorophenyl)-4-(((1r,4r)-4-methoxycyclohexyl)amino)but-2-enamide]
- binding rate [1]: A (A binding rate of 80% or more is rated “A”)
- IC50 [2]: 360 nM
- IC50 [3]: 130 nM

Structure (SMILES): COc1cc(N2CCCC2=O)cc(Cl)c1-c1cccn2c(C(=O)c3cc(F)c(NC(=O)/C=C/CN[C@H]4CC[C@H](OC)CC4)c(F)c3)ccc12 (single isomer, unassigned) [Example 30-2, (E)-N-(4-(8-(2-chloro-6-methoxy-4-(2-oxopyrrolidin-1-yl)phenyl)indolizine-3-carbonyl)-2,6-difluorophenyl)-4-(((1r,4r)-4-methoxycyclohexyl)amino)but-2-enamide]
- binding rate [1]: A (A binding rate of 80% or more is rated “A”)
- IC50 [2]: 120 nM
- IC50 [3]: 61 nM

Structure (SMILES): CO[C@H]1CC[C@H](NC/C=C/C(=O)Nc2c(F)cc(C(=O)c3ccc4c(-c5c(C(F)(F)F)cc6c(nc(C)n6C)c5Cl)cccn34)cc2F)CC1 (single isomer, unassigned) [Example 32-1, (E)-N-(4-(8-(4-chloro-1,2-dimethyl-6-(trifluoromethyl)-1H-benzo[d]imidazol-5-yl)indolizine-3-carbonyl)-2,6-difluorophenyl)-4-(((1r,4r)-4-methoxycyclohexyl)amino)but-2-enamide]
- binding rate [1]: A (A binding rate of 80% or more is rated “A”)
- IC50 [2]: 14 nM
- IC50 [3]: 21 nM

Structure (SMILES): CO[C@H]1CC[C@H](NC/C=C/C(=O)Nc2c(F)cc(C(=O)c3ccc4c(-c5c(C(F)(F)F)cc6c(nc(C)n6C)c5Cl)cccn34)cc2F)CC1 (single isomer, unassigned) [Example 32-2, (E)-N-(4-(8-(4-chloro-1,2-dimethyl-6-(trifluoromethyl)-1H-benzo[d]imidazol-5-yl)indolizine-3-carbonyl)-2,6-difluorophenyl)-4-(((1r,4r)-4-methoxycyclohexyl)amino)but-2-enamide]
- binding rate [1]: A (A binding rate of 80% or more is rated “A”)
- IC50 [2]: 990 nM
- IC50 [3]: 420 nM

Structure (SMILES): CO[C@H]1CC[C@H](NC/C=C/C(=O)Nc2c(F)cc(C(=O)c3ccc4c(-c5c(C)cc6c(ncn6C)c5C)cccn34)cc2F)CC1 (single isomer, unassigned) [Example 34-1, (E)-N-(2,6-difluoro-4-(8-(1,4,6-trimethyl-1H-benzo[d]imidazol-5-yl)indolizine-3-carbonyl)phenyl)-4-(((1r,4r)-4-methoxycyclohexyl)amino)but-2-enamide]
- binding rate [1]: A (A binding rate of 80% or more is rated “A”)
- IC50 [2]: 130 nM
- IC50 [3]: 94 nM

Structure (SMILES): CO[C@H]1CC[C@H](NC/C=C/C(=O)Nc2c(F)cc(C(=O)c3ccc4c(-c5c(C)cc6c(ncn6C)c5C)cccn34)cc2F)CC1 (single isomer, unassigned) [Example 34-2, (E)-N-(2,6-difluoro-4-(8-(1,4,6-trimethyl-1H-benzo[d]imidazol-5-yl)indolizine-3-carbonyl)phenyl)-4-(((1r,4r)-4-methoxycyclohexyl)amino)but-2-enamide]
- binding rate [1]: B (a binding rate of 60% or more and less than 80% is rated “B”)
- IC50 [2]: 310 nM
- IC50 [3]: 200 nM
